Assay results reported in ChEMBL document CHEMBL5029183 (J Med Chem, 2021).
Activity calls are given as the source filed them.

Key:
Mu-type opioid receptor [1] = biological target: Mu-type opioid receptor (Rattus norvegicus, UniProt P33535); experiment: Displacement of [3H]DAMGO from MOR in Wistar rat brain membranes measured after 1 hr by scintillation counting method; assay type: cell membranes, Membrane
[2] = biological target: Delta-type opioid receptor (Rattus norvegicus, UniProt P33533); experiment: Displacement of [3H]DPDPE from DOR in Wistar rat brain membranes measured after 3 hrs by scintillation counting method; assay type: cell membranes, Membrane
Sequence of Delta-type opioid receptor (P33533 whole entry): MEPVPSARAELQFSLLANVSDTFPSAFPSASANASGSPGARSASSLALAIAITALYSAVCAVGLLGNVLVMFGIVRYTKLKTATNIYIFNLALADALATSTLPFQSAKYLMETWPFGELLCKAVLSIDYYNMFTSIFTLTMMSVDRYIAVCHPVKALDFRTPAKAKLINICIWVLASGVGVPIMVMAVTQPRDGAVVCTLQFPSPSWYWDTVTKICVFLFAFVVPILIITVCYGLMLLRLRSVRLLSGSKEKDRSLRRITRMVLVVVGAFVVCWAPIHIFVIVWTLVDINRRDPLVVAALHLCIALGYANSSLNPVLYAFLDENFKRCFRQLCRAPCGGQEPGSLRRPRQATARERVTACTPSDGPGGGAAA

Rattus norvegicus [3] = species: Rattus norvegicus; experiment: Selectivity index, ratio of Ki for displacement of [3H]DPDPE from DOR in Wistar rat brain membranes to Ki for displacement of [3H]DAMGO from MOR in Wistar rat brain membranes; assay type: cell membranes
Rattus norvegicus [4] = species: Rattus norvegicus; experiment: Selectivity index, ratio of Ki for displacement of [3H]-U69593 from KOR in Wistar rat brain membranes to Ki for displacement of [3H]DAMGO from MOR in Wistar rat brain membranes; assay type: cell membranes
Ileum = experiment: Inhibition of electric-field induced guinea pig ileum contraction; assay type: functional, tissue-based; settings: Cavia porcellus
Vas deferens = experiment: Inhibition of electric-field induced mouse vas deferens contraction; assay type: functional, tissue-based
Mu-type opioid receptor [5] = biological target: T1, Mu-type opioid receptor (Homo sapiens, UniProt P35372); experiment: Agonist activity at mu-opioid receptor (unknown origin) expressed in HEK293 cells assessed as inhibition of forskolin-induced cAMP accumulation incubated for 15 mins by ELISA; assay type: functional, cell-based
T1 sequence (P35372 whole entry): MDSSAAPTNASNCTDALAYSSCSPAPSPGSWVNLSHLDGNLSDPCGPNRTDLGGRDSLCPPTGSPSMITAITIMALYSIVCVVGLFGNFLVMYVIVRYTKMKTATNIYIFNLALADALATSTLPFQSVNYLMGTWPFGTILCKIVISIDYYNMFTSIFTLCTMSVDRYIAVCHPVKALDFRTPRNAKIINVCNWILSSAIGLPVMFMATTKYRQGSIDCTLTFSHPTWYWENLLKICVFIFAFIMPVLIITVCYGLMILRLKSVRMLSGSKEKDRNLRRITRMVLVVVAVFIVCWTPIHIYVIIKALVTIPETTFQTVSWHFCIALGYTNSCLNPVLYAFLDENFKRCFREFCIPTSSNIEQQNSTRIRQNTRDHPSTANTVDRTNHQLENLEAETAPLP

Mu-type opioid receptor [6] = biological target: T1, Mu-type opioid receptor; experiment: Agonist activity at mu-opioid receptor (unknown origin) expressed in HEK293 cells assessed as inhibition of forskolin-induced cAMP accumulation incubated for 15 mins by ELISA relative to control; assay type: functional, cell-based; settings: filed as agonist
[7] = biological target: Delta-type opioid receptor (Homo sapiens) (UniProt P41143); experiment: Agonist activity at delta-opioid receptor (unknown origin) expressed in HEK293 cells assessed as inhibition of forskolin-induced cAMP accumulation incubated for 15 mins by ELISA; assay type: functional, cell-based
Sequence of Delta-type opioid receptor (Homo sapiens) (P41143 whole entry): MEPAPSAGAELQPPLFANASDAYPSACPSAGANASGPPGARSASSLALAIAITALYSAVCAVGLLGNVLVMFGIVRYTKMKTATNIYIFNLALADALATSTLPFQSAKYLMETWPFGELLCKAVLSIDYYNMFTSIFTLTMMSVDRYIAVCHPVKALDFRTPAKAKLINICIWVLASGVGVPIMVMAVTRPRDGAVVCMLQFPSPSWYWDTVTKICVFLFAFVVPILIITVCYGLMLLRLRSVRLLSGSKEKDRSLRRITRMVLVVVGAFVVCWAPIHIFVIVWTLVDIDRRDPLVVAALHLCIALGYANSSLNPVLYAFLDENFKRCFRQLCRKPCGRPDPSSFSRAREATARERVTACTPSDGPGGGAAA

[8] = biological target: Kappa-type opioid receptor (Homo sapiens) (UniProt P41145); experiment: Agonist activity at kappa-opioid receptor (unknown origin) expressed in HEK293 cells assessed as inhibition of forskolin-induced cAMP accumulation incubated for 15 mins by ELISA; assay type: functional, cell-based
Sequence of Kappa-type opioid receptor (Homo sapiens) (P41145 whole entry): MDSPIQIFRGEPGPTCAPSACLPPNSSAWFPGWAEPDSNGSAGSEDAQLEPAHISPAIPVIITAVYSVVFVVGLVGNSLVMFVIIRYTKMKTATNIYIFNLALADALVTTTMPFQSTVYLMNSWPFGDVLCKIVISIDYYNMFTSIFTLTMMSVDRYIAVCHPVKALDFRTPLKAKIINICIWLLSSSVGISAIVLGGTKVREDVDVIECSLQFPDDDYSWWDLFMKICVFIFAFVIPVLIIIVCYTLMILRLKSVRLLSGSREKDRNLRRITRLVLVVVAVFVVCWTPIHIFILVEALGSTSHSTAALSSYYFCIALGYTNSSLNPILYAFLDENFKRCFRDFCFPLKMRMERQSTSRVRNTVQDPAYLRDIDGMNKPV

[9] = Metabolic stability in Kunming mouse brain assessed as half life measured upto 480 mins by RP-HPLC analysis; assay type: ADME, tissue-based
[10] = Metabolic stability in Kunming mouse serum assessed as half life measured upto 480 mins by RP-HPLC analysis; assay type: ADME, cell-free
Mus musculus [11] = experiment: Chronic antinociceptive tolerance in Kunming mouse pretreated with compound followed by repeated compound addition at 10 micromol/kg, sc once daily for 7 days and measured after 20 mins by radiant heat paw withdrawal test; assay type: functional, organism-based; settings: dose 10.0 µmol/kg, time 7.0 day
Mus musculus [12] = experiment: Antinociceptive activity in Kunming mouse model assessed as maximum possible effect at 10 micromol/kg, sc by radiant heat paw withdrawal assay; assay type: functional; settings: dose 10 µmol/kg
Mus musculus [13] = experiment: Antiallodynic activity in Kunming mouse model of spared nerve injury-induced neuropathic pain assessed as increase in paw withdrawal threshold at 10 micromol/kg, sc measured at 20 to 50 mins by von Frey test; assay type: functional, organism-based; settings: dose 10.0 µmol/kg, time 20-50 min
Mus musculus [14] = experiment: Chronic antinociceptive tolerance in Kunming mouse pretreated with compound followed by repeated compound addition at 20 nmol, icv once daily for 7 days and measured after 15 mins by radiant heat paw withdrawal test; assay type: functional, organism-based; settings: time 7.0 day
[15] = Toxicity in icv dosed Kunming mouse assessed as inhibition of gastrointestinal transit by measuring charcoal distance travel by charcoal meal test; assay type: organism-based; settings: in vivo, icv_or_intrathecal, dose 0.67-6.7 nmol
[16] = Toxicity in Kunming mouse assessed as inhibition of gastrointestinal transit at 10 micromol/kg, sc by charcoal meal test (reference value: 70.3 +/- 3 %); assay type: organism-based; set-up: scale not given: the % may be the effect or the level left; settings: in vivo
[17] = Toxicity in Kunming mouse model assessed as conditioned place preference time at 20 nmol, icv; settings: in vivo, icv_or_intrathecal
[18] = Toxicity in Kunming mouse model assessed as conditioned place preference time at 10 micromol/kg, sc; settings: in vivo, dose 10 µmol/kg
[19] = Toxicity in Kunming mouse assessed as effect on motor coordination at 20 nmol, icv by rotarod test; settings: in vivo, icv_or_intrathecal
[20] = Toxicity in Kunming mouse assessed as effect on motor coordination at 10 micromol/kg, sc by rotarod test; assay type: organism-based; settings: in vivo, dose 10 µmol/kg
Mus musculus [21] = experiment: Antinociceptive activity in icv dosed Kunming mouse model assessed as increase in paw withdrawal latency by radiant heat paw withdrawal assay; assay type: functional; settings: dose 0.67-20 nmol
Mus musculus [22] = experiment: Antinociceptive activity in Kunming mouse model assessed as increase in paw withdrawal latency at 0.67 to 20 nmol, icv by radiant heat paw withdrawal assay; assay type: functional, organism-based; settings: dose 0.67-20 nmol, TDE = time-dependent effect
Mus musculus [23] = experiment: Antinociceptive activity in Kunming mouse model assessed as increase in paw withdrawal latency at 0.67 to 20 nmol, icv measured after 5 mins by radiant heat paw withdrawal assay; assay type: functional, organism-based; settings: dose 0.67-20 nmol
Mus musculus [24] = experiment: Antinociceptive activity in Kunming mouse model assessed as increase in paw withdrawal latency at 0.67 to 20 nmol, icv measured after 20 mins by radiant heat paw withdrawal assay; assay type: functional, organism-based; settings: dose 0.67-20 nmol
Mus musculus [25] = experiment: Antinociceptive activity in Kunming mouse model assessed as increase in paw withdrawal latency at 20 nmol, icv pretreated for 10 mins with naloxone followed by compound addition and measured upto 10 mins by radiant heat paw withdrawal assay; assay type: functional, organism-based; settings: time min <=10
Mus musculus [26] = experiment: Antinociceptive activity in Kunming mouse model assessed as increase in paw withdrawal latency at 20 nmol, icv pretreated for 4 hrs with beta-FNA followed by compound addition and measured upto 10 mins by radiant heat paw withdrawal assay; assay type: functional, organism-based; settings: time min <=10
Mus musculus [27] = experiment: Antinociceptive activity in Kunming mouse model assessed as increase in paw withdrawal latency at 20 nmol, icv pretreated for 20 mins with naloxonazine followed by compound addition and measured upto 10 mins by radiant heat paw withdrawal assay; assay type: functional, organism-based; settings: time min <=10
Mus musculus [28] = experiment: Antinociceptive activity in Kunming mouse model assessed as increase in paw withdrawal latency at 20 nmol, icv pretreated for 30 mins with nor-BNI followed by compound addition and measured upto 10 mins by radiant heat paw withdrawal assay; assay type: functional, organism-based; settings: time min <=10
Mus musculus [29] = experiment: Antinociceptive activity in Kunming mouse model assessed as increase in paw withdrawal latency at 10 micromol/kg, sc by radiant heat paw withdrawal assay; assay type: functional, organism-based; settings: dose 10.0 µmol/kg
Mus musculus [30] = species: Mus musculus; experiment: Antinociceptive tolerance in Kunming mouse pretreated with saline for 2 hrs followed by compound addition by radiant heat paw withdrawal test; assay type: functional
Mus musculus [31] = species: Mus musculus; experiment: Antinociceptive tolerance in Kunming mouse pretreated with 3 times ED50 of compound for 2 hrs followed by challenge with second dose of compound by radiant heat paw withdrawal test; assay type: functional
Mus musculus [32] = experiment: Chronic antinociceptive tolerance in Kunming mouse pretreated with compound followed by repeated compound addition at 20 nmol, icv once daily for 7 days and measured after 5 mins by radiant heat paw withdrawal test; assay type: functional, organism-based; settings: time 7.0 day

Sequence of Mu-type opioid receptor (Rattus norvegicus, UniProt P33535) (P33535 whole entry): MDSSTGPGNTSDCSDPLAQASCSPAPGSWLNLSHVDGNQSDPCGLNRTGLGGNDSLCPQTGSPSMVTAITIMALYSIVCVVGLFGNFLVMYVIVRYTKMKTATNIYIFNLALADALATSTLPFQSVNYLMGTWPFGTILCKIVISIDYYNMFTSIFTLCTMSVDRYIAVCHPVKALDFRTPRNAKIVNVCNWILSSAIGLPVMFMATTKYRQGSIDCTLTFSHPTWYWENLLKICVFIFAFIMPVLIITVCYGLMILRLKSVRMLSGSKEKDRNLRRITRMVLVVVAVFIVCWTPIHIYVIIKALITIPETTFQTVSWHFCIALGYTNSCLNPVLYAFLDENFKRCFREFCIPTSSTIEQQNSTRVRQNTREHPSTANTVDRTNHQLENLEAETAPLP

N=C(N)NCCC[C@@H](NC(=O)[C@@H](CCCNC(=N)N)NC(=O)CNC(=O)[C@@H]1CSSC[C@H](NC(=O)[C@@H](N)Cc2ccc(O)cc2)C(=O)N[C@@H](Cc2ccccc2)C(=O)N[C@@H](Cc2ccccc2)C(=O)N1)C(=O)O
Ki (Mu-type opioid receptor [1]): 45.3 nM
Ki [2]: > 10000 nM
Ratio Ki (Rattus norvegicus [3]): 221
Ratio Ki (Rattus norvegicus [4]): > 221
IC50 (Ileum): 74.6 nM
IC50 (Vas deferens): 108 nM
EC50 (Mu-type opioid receptor [5]): 154 nM
Emax (Mu-type opioid receptor [6]): 79.7%
Activity [7]: inactive
Activity [8]: inactive
half-life [9]: 4.12 h
half-life [10]: 3.6 h

N=C(N)NCCC[C@@H](NC(=O)[C@@H](CCCNC(=N)N)NC(=O)CNC(=O)[C@@H]1CSSC[C@H](NC(=O)[C@@H](N)Cc2ccc(O)cc2)C(=O)N[C@@H](Cc2ccccc2)C(=O)N[C@@H](Cc2ccc(Cl)cc2)C(=O)N1)C(=O)O
Ki (Mu-type opioid receptor [1]): 67.2 nM
Ki [2]: > 10000 nM
Ratio Ki (Rattus norvegicus [3]): > 149
Ratio Ki (Rattus norvegicus [4]): > 149
IC50 (Ileum): 102 nM
IC50 (Vas deferens): 139 nM
EC50 (Mu-type opioid receptor [5]): 202 nM
Emax (Mu-type opioid receptor [6]): 79.6%
Activity [7]: inactive
Activity [8]: inactive
half-life [9]: 5.85 h
half-life [10]: 4.47 h

CN1CC[C@]23c4c5ccc(O)c4O[C@H]2[C@@H](O)C=C[C@H]3[C@H]1C5 [MORPHINE]
Activity (Mus musculus [11]): Active
MPE (Mus musculus [12]): 41.05%
Activity (Mus musculus [13]): Active
Activity (Mus musculus [14]): Active
Activity [15]: Dose-Dependent Effect
Activity ([16]; dose 10 µmol/kg): Toxic
Time [17]: 451 s
Time [18]: 447 s
Activity [19]: Toxic
Activity [20]: Toxic

N=C(N)NCCC[C@@H](NC(=O)[C@@H](CCCNC(=N)N)NC(=O)CNC(=O)[C@@H]1CSSC[C@H](NC(=O)[C@@H](N)Cc2ccc(O)cc2)C(=O)N[C@@H](Cc2c[nH]c3ccccc23)C(=O)N[C@@H](Cc2ccc(Cl)cc2)C(=O)N1)C(=O)O
Ki (Mu-type opioid receptor [1]): 68.9 nM
Ki [2]: > 10000 nM
Ratio Ki (Rattus norvegicus [3]): > 145
Ratio Ki (Rattus norvegicus [4]): > 145
IC50 (Ileum): 97.4 nM
IC50 (Vas deferens): 138 nM
EC50 (Mu-type opioid receptor [5]): 189 nM
Emax (Mu-type opioid receptor [6]): 80.6%
Activity [7]: inactive
Activity [8]: inactive
half-life [9]: 5.8 h
half-life [10]: 4.57 h

N=C(N)NCCC[C@@H](NC(=O)[C@@H](CCCNC(=N)N)NC(=O)CNC(=O)[C@@H]1CSSC[C@H](NC(=O)[C@@H](N)Cc2ccc(O)cc2)C(=O)N[C@@H](Cc2c[nH]c3ccccc23)C(=O)N[C@@H](Cc2ccccc2)C(=O)N1)C(=O)O
Ki (Mu-type opioid receptor [1]): 40.1 nM
Ki [2]: > 10000 nM
Ratio Ki (Rattus norvegicus [3]): 249
Ratio Ki (Rattus norvegicus [4]): > 249
IC50 (Ileum): 70.2 nM
IC50 (Vas deferens): 97.5 nM
EC50 (Mu-type opioid receptor [5]): 160 nM
Emax (Mu-type opioid receptor [6]): 77.2%
Activity [7]: inactive
Activity [8]: inactive
half-life [9]: 4.23 h
half-life [10]: 3.28 h

NC(=O)[C@H](Cc1ccccc1)NC(=O)[C@H](Cc1ccccc1)NC(=O)[C@@H]1CCCN1C(=O)[C@@H](N)Cc1ccc(O)cc1 [ENDOMORPHIN 2]
IC50 (Ileum): 11.3 nM
IC50 (Vas deferens): 42.9 nM
half-life [9]: 0.258 h
half-life [10]: 0.148 h
Activity (Mus musculus [21]): Dose-Dependent Effect
ED50 (Mus musculus [21]): 6.4 nmol
Activity (Mus musculus [22]): Tde
Activity (Mus musculus [23]): inactive
Activity (Mus musculus [24]): inactive
Activity (Mus musculus [25]): inactive
Activity (Mus musculus [26]): inactive
Activity (Mus musculus [27]): inactive
Activity (Mus musculus [28]): inactive
Activity (Mus musculus [29]): inactive
ED50 (Mus musculus [30]): 6.4 nmol
ED50 (Mus musculus [31]): 20.6 nmol
Activity (Mus musculus [32]): Active
Activity [15]: Dose-Dependent Effect
Activity ([16]; at 10 µmol/kg): 68.8%
Time [17]: 449 s
Time [18]: 445 s

NC(=O)[C@H](Cc1ccccc1)NC(=O)[C@H](Cc1c[nH]c2ccccc12)NC(=O)[C@@H]1CCCN1C(=O)[C@@H](N)Cc1ccc(O)cc1 [ENDOMORPHIN-1]
IC50 (Ileum): 8.73 nM
IC50 (Vas deferens): 50.1 nM
Activity (Mus musculus [21]): Dose-Dependent Effect
Activity (Mus musculus [22]): Tde
Activity (Mus musculus [23]): inactive
Activity (Mus musculus [24]): inactive
Activity (Mus musculus [25]): inactive
Activity (Mus musculus [26]): inactive
Activity (Mus musculus [27]): Active
Activity (Mus musculus [28]): Active
Activity (Mus musculus [29]): inactive
Activity (Mus musculus [32]): Active
Activity [15]: Dose-Dependent Effect
Activity ([16]; at 10 µmol/kg): 68.1%
Time [17]: 455 s
Time [18]: 451 s
